The conditions of data set [1]: in protic solvent; cited from earlier work.
Data set [2] can be described thus: storage stability of the boronic acid on exposure to air. It counts as physicochemical. The following applies: without taking any precautions to avoid exposure to air.

Regarding `Cc1cc(C(C)(C)C)c(O)c(C(C)(C)C)c1` [BHT], in data set [1], the “rate constant k of reduction of nitroxide by phenols (hydrogen transfer)” value is 0.003 M⁻¹ s⁻¹.

As to `Cc1c(C)c2c(c(C)c1O)CCC(C)(C(=O)O)O2` (stereo not shown) [TROLOX], the “rate constant k of reduction of nitroxide by phenols (hydrogen transfer)” value in data set [1] was 0.2 M⁻¹ s⁻¹.

On to `O=C(O)c1cc(O)c(O)c(O)c1` [gallic acid], for which the “rate constant k of reduction of nitroxide by phenols (hydrogen transfer)” value in data set [1] was 0.003 M⁻¹ s⁻¹.

As to `CCCCB(O)O` [n-butyl boronic acid], the “stability of the sample on storage” value in data set [2] is “stable for over a year”.
